In patent US20250101019A1 (Insilico Medicine IP Limited, priority 2022, published 2025) one finds IC50 data, which are given here for 24 compounds.

Assay [1] has as its target T1, ENPP1 (Homo sapiens (Human), UniProt P22413). The assay can be described thus: ATP-Glo enzymatic assay (ATP substrate, AMP-Glo readout). It counts as biochemical. To be noted: 25° C. for 60 min, 50 mM Tris pH 8.8. How it is done: (§1) Example A: Enzymatic Assay
(§2) • 1. Diluted compounds in DMSO by hand for 11 points, 3 folds dilution. Then transferred 0.02 μL compounds to 384 assay plate by ECHO. • 2. Added 2 μL specified concentration of ENPP1 to 384 assay plate. Centrifuged 1000 RPM for 1 min. • 3. Added 2 μL specified concentration of ATP to the assay plate. Centrifuged 1000 RPM for 1 min. • 4. Incubated at 25° C. for 60 min. • 5. Added 4 μL AMP-Glo Reagent to the assay plates. • 6. Centrifuged 1000 RPM for 1 min, incubate at 25° C. for 1 hours. • 7. Added 8 μL Kinase Detection Reagent to the assay plates. • 8. Centrifuged 1000 RPM for 1 min, incubated at 25° C. for 1 hours. The final assay reaction mixture contained a buffer of 50 mM Tris pH 8.8, 250 mM NaCl and 0.1% BSA • 9. Read on Envision for US LUM as RLU. • 10. Analyzed the raw data using the equation (V. Data analysis). cGAMP-Glo Assay: • 1. Diluted compounds in DMSO by hand for 11 points, 3 folds dilution. Then transferred 0.02 μL compounds to 384 assay plate by ECHO. • 2. Added 2 μL specified concentration of ENPP1 to 384 assay plate, centrifuged 1000 RPM for 1 min. • 3. Added 2 μL specified concentration of 2′3′-cGAMP to the assay plate, centrifuged 1000 RPM for 1 min. • 4. Incubated at 25° C. for 60 min. • 5. Added 4 μL AMP-Glo Reagent to the assay plates. • 6. Centrifuged 1000 RPM for 1 min, incubated at 25° C. for 1 hours. • 7. Added 8 μL Kinase Detection Reagent to the assay plates. • 8. Centrifuged 1000 RPM for 1 min, incubate at 25° C. for 1 hours. The final assay reaction mixture contained a buffer of 50 mM Tris pH 8.8, 250 mM NaCl and 0.1% BSA • 9. Read on Envision for US LUM as RLU. • 10. Analyzed the raw data using the equation (V. Data analysis).

In assay [2] the target is T1, ENPP1. The assay can be described thus: cGAMP-Glo enzymatic assay (2′3′-cGAMP substrate, AMP-Glo readout). It counts as biochemical. The conditions noted are these: substrate 2′3′-cGAMP; 25° C. for 60 min; 50 mM Tris pH 8.8. How it is done:
as §1, §2

pIC50: −log10 of the molar value. Bounds are passed on as bounds.

T1 sequence (P22413 whole entry, species assumed): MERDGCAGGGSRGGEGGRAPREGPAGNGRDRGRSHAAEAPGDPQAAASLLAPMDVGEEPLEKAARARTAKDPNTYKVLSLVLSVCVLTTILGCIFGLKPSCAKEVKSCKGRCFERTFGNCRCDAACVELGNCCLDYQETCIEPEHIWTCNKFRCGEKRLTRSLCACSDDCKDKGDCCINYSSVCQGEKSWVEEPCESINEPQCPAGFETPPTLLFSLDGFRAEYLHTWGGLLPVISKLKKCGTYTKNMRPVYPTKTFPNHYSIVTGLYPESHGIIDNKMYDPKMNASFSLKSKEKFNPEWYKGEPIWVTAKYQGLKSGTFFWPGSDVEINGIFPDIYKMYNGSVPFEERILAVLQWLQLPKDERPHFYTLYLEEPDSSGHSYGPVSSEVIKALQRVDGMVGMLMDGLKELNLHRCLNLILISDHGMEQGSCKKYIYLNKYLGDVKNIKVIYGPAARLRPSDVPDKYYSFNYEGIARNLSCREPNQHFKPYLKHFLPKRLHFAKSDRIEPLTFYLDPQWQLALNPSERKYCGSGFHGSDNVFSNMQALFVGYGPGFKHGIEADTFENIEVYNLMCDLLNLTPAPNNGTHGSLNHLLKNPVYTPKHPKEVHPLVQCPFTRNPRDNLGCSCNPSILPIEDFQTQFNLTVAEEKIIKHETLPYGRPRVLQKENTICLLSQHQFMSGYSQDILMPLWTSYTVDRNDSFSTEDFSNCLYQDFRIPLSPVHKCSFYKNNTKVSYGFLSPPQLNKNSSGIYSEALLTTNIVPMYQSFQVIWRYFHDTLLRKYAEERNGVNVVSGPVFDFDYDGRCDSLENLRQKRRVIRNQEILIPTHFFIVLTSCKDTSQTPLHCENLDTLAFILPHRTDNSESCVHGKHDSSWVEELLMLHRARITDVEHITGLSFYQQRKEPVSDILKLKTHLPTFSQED

With `COc1ncc2ncn(Cc3ccc(S(N)(=O)=O)cc3)c2c1-c1ccccc1` [Example 23, 4-((6-methoxy-7-phenyl-1H-imidazo[4,5-c]pyridin-1-yl)methyl)benzenesulfonamide], the negative logarithm of the IC50 (pIC50) against ENPP1 [1] and against ENPP1 [2] was > 9.00 in each case.
In the case of `COc1ncc2nc(C)n(Cc3c(F)cc(S(N)(=O)=O)cc3F)c2c1-c1ccccc1` [Example 24, 3,5-difluoro-4-((6-methoxy-2-methyl-7-phenyl-1H-imidazo[4,5-c]pyridin-1-yl)methyl)benzenesulfonamide], the pIC50 against ENPP1 [1] and on ENPP1 [2] was > 9.00 each time.
For the compound `COc1ncc2nc(C)n(Cc3ccc(S(N)(=O)=O)cc3F)c2c1-c1ccccc1` [Example 25], the pIC50 at ENPP1 [1] and at ENPP1 [2] was > 9.00 in each case.
In the case of `Cc1ncc2nc(C)n(Cc3c(F)cc(S(N)(=O)=O)cc3F)c2c1-c1ccccc1` [Example 26, 4-((2,6-dimethyl-7-phenyl-1H-imidazo[4,5-c]pyridin-1-yl)methyl)-3,5-difluorobenzenesulfonamide], the pIC50 against ENPP1 [1] and on ENPP1 [2] was > 9.00 throughout.
For `Cc1ncc2ncn(Cc3c(F)cc(S(N)(=O)=O)cc3F)c2c1-c1ccccc1` [Example 27, 3,5-difluoro-4-((6-methyl-7-phenyl-1H-imidazo[4,5-c]pyridin-1-yl)methyl)benzene sulfonamide], the negative-log IC50 (pIC50) against ENPP1 [1] and at ENPP1 [2] was > 9.00 each time.
On to `Cc1ccccc1-c1c(C)ncc2ncn(Cc3c(F)cc(S(N)(=O)=O)cc3F)c12` [Example 28, 3,5-difluoro-4-((6-methyl-7-(o-tolyl)-1H-imidazo[4,5-c]pyridin-1-yl)methyl)benzene sulfonamide], for which the negative logarithm of the IC50 (pIC50) against ENPP1 [1] and against ENPP1 [2] was 7.00 to 8.00 in each case.
`Cc1ncc2ncn(Cc3ccc(S(N)(=O)=O)cc3)c2c1-c1ccccc1` [Example 29, 4-((6-methyl-7-phenyl-1H-imidazo[4,5-c]pyridin-1-yl)methyl)benzene sulfonamide]: the negative-log IC50 (pIC50) against ENPP1 [1] and against ENPP1 [2] was > 9.00 in each case.
With `Cc1ncc(-c2ccccc2)c2c1ncn2Cc1ccc(S(N)(=O)=O)cc1` [Example 30, 4-((4-methyl-7-phenyl-1H-imidazo[4,5-c]pyridin-1-yl)methyl)benzene sulfonamide], the negative-log IC50 (pIC50) against ENPP1 [1] and against ENPP1 [2] was > 9.00 each time.
On to `Cc1ncc2nc(C)n(Cc3ccc(S(N)(=O)=O)cc3)c2c1-c1ccccc1` [Example 31, 4-((2,6-dimethyl-7-phenyl-1H-imidazo[4,5-c]pyridin-1-yl)methyl)benzene sulfonamide], for which the pIC50 on ENPP1 [1] and on ENPP1 [2] was > 9.00 each time.
In the case of `Cc1ncc(-c2ccccc2)c2c1nc(C)n2Cc1ccc(S(N)(=O)=O)cc1` [Example 32, 4-((2,4-dimethyl-7-phenyl-1H-imidazo[4,5-c]pyridin-1-yl)methyl)benzene sulfonamide], the negative logarithm of the IC50 (pIC50) at ENPP1 [1] and on ENPP1 [2] was > 9.00 throughout.
For `Cc1nc2cnc(OC(F)F)c(-c3ccccc3)c2n1Cc1ccc(S(N)(=O)=O)cc1` [Example 33, 4-((6-(difluoromethoxy)-2-methyl-7-phenyl-1H-imidazo[4,5-c]pyridin-1-yl)methyl)benzenesulfonamide], the pIC50 on ENPP1 [1] and on ENPP1 [2] was > 9.00 in each case.
Regarding `Cc1ncc2nc(C(F)(F)F)n(Cc3c(F)cc(S(N)(=O)=O)cc3F)c2c1-c1ccccc1` [Example 34, 3,5-difluoro-4-((6-methyl-7-phenyl-2-(trifluoromethyl)-1H-imidazo[4,5-c]pyridin-1-yl)methyl)benzenesulfonamide], the negative logarithm of the IC50 (pIC50) against ENPP1 [1] and against ENPP1 [2] was > 9.00 each time.
For `COc1ncc2nc(C)n(C(C)c3ccc(S(N)(=O)=O)cc3)c2c1-c1ccccc1` (stereo not drawn) [Example 35, 4-(1-(6-methoxy-2-methyl-7-phenyl-1H-imidazo[4,5-c]pyridin-1-yl)ethyl) benzenesulfonamide], the negative-log IC50 (pIC50) against ENPP1 [1] and on ENPP1 [2] was 8.00 to 9.00 throughout.
Turning to `COc1ncc2nc(C)n(Cc3ccc(S(N)(=O)=O)c(F)c3)c2c1-c1ccccc1` [Example 36, 2-fluoro-4-((6-methoxy-2-methyl-7-phenyl-1H-imidazo[4,5-c]pyridin-1-yl)methyl)benzenesulfonamide], the negative-log IC50 (pIC50) against ENPP1 [1] and against ENPP1 [2] was > 9.00 each time.
On to `Cc1ncc2nc(C)n(Cc3ccc(OS(N)(=O)=O)cc3)c2c1-c1ccccc1` [Example 37], for which the negative-log IC50 (pIC50) against ENPP1 [1] and against ENPP1 [2] was > 9.00 in each case.
Turning to `Cc1ncc2nc(C(F)F)n(Cc3c(F)cc(S(N)(=O)=O)cc3F)c2c1-c1ccccc1` [Example 38, 4-((2-(difluoromethyl)-6-methyl-7-phenyl-1H-imidazo[4,5-c]pyridin-1-yl)methyl)-3,5-difluorobenzenesulfonamide], the pIC50 at ENPP1 [1] and against ENPP1 [2] was > 9.00 in each case.
As to `Cc1ncc2nc(C3CC3)n(Cc3c(F)cc(S(N)(=O)=O)cc3F)c2c1-c1ccccc1` [Example 39, 4-((2-cyclopropyl-6-methyl-7-phenyl-1H-imidazo[4,5-c]pyridin-1-yl)methyl)-3,5-difluorobenzenesulfonamide], the negative logarithm of the IC50 (pIC50) against ENPP1 [1] and on ENPP1 [2] was > 9.00 in each case.
As for `Cc1nc2cncc(-c3ccccc3)c2n1Cc1ccc(S(N)(=O)=O)cc1` [Example 40, 4-((2-methyl-7-phenyl-1H-imidazo[4,5-c]pyridin-1-yl)methyl)benzene sulfonamide], the pIC50 on ENPP1 [1] and against ENPP1 [2] was > 9.00 each time.
Take `[2H]C([2H])([2H])c1nc2cnc(C)c(-c3ccccc3)c2n1Cc1c(F)cc(S(N)(=O)=O)cc1F` [Example 42, 3,5-difluoro-4-((6-methyl-2-(methyl-d3)-7-phenyl-1H-imidazo[4,5-c]pyridin-1-yl)methyl)benzenesulfonamide]: the pIC50 at ENPP1 [1] and at ENPP1 [2] was > 9.00 in each case.
On to `Cc1nc2cncc(-c3ccccc3)c2n1Cc1c(F)cc(S(N)(=O)=O)cc1F` [Example 43, 3,5-difluoro-4-((2-methyl-7-phenyl-1H-imidazo[4,5-c]pyridin-1-yl)methyl)benzenesulfonamide], for which the pIC50 on ENPP1 [1] and against ENPP1 [2] was > 9.00 throughout.
For the compound `Cc1ncc2nc(C)n(Cc3c(F)cc(S(N)(=O)=O)cc3F)c2c1-c1ccccc1F` [Example 44, 3,5-difluoro-4-((7-(2-fluorophenyl)-2,6-dimethyl-1H-imidazo[4,5-c]pyridin-1-yl)methyl)benzenesulfonamide], the pIC50 against ENPP1 [1] and against ENPP1 [2] was > 9.00 in each case.
In the case of `Cc1ncc2nc(C)n(Cc3c(F)cc(S(N)(=O)=O)cc3F)c2c1-c1cccc(F)c1` [Example 45, 3,5-difluoro-4-((7-(3-fluorophenyl)-2,6-dimethyl-1H-imidazo[4,5-c]pyridin-1-yl)methyl)benzenesulfonamide], the negative-log IC50 (pIC50) at ENPP1 [1] and against ENPP1 [2] was > 9.00 each time.
Consider `Cc1ncc2nc(C)n(Cc3c(F)cc(S(N)(=O)=O)cc3F)c2c1-c1ccc(F)cc1` [Example 46, 3,5-difluoro-4-((7-(4-fluorophenyl)-2,6-dimethyl-1H-imidazo[4,5-c]pyridin-1-yl)methyl)benzenesulfonamide], for which the pIC50 against ENPP1 [1] and against ENPP1 [2] was > 9.00 in each case.
`Cc1ncc2nc(CF)n(Cc3c(F)cc(S(N)(=O)=O)cc3F)c2c1-c1ccccc1` [Example 47, 3,5-difluoro-4-((2-(fluoromethyl)-6-methyl-7-phenyl-1H-imidazo[4,5-c]pyridin-1-yl)methyl)benzenesulfonamide]: the negative logarithm of the IC50 (pIC50) at ENPP1 [1] and at ENPP1 [2] was > 9.00 each time.

The term pIC50 denotes −log10 of the IC50, conventionally taken in molar units. High values mean a low IC50, low ones a high IC50.
